In patent US11439642B2 (Adverio Pharma GmbH, priority 2010, dated 2022):

System: conscious spontaneously hypertensive rats (SHR Okamoto)
Experiment: Radiotelemetric measurement of blood pressure on conscious spontaneously hypertensive rats
Format: in vivo, rat
Text: A commercially available telemetry system from DATA SCIENCES INTERNATIONAL DSI, USA, is employed for the blood pressure measurements on conscious rats described below.
The system consists of 3 main components: • implantable transmitters (Physiotel® telemetry transmitter) • receivers (Physiotel® receiver) which are linked via a multiplexer (DSI Data Exchange Matrix) to a • data acquisition computer.
The telemetry system makes it possible to continuously record blood pressure, heart rate and body motions of conscious animals in their usual habitat.
The investigations are carried out on adult female spontaneously hypertensive rats (SHR Okamoto) with a body weight of >200 g. SHR/NCrl from the Okamoto Kyoto School of Medicine, 1963 were a cross of male Wistar Kyoto rats with highly elevated blood pressure and female rats having a slightly elevated blood pressure and at F13 handed over to the U.S. National Institutes of Health.
After transmitter implantation, the experimental animals are housed singly in type 3 Makrolon cages. They have free access to standard feed and water.
The day/night rhythm in the experimental laboratory is changed by the room lighting at 6.00 am and at 7.00 pm.
The telemetry transmitters TA11 PA-C40 used are surgically implanted under aseptic conditions in the experimental animals at least 14 days before the first experimental use. The animals instrumented in this way can be employed repeatedly after the wound has healed and the implant has settled.
For the implantation, the fasted animals are anaesthetized with pentobarbital (Nembutal, Sanofi: 50 mg/kg i.p.) and shaved and disinfected over a large area of their abdomens. After the abdominal cavity has been opened along the linea alba, the liquid-filled measuring catheter of the system is inserted into the descending aorta in the cranial direction above the bifurcation and fixed with tissue glue (VetBonD™, 3M). The transmitter housing is fixed intraperitoneally to the abdominal wall muscle, and layered closure of the wound is performed.
An antibiotic (Tardomyocel COMP, Bayer, 1 ml/kg s.c.) is administered postoperatively for prophylaxis of infection.
Unless indicated otherwise, the substances to be investigated are administered orally by gavage in each case to a group of animals (n=6). The test substances are dissolved in suitable solvent mixtures, or suspended in 0.5% strength Tylose, appropriate for an administration volume of 5 ml/kg of body weight.
A solvent-treated group of animals is employed as control.
The telemetry measuring unit present is configured for 24 animals. Each experiment is recorded under an experiment number (Vyear month day).
Each of the instrumented rats living in the system is assigned a separate receiving antenna (1010 Receiver, DSI).
The implanted transmitters can be activated externally by means of an incorporated magnetic switch and are switched to transmission in the run-up to the experiment. The emitted signals can be detected online by a data acquisition system (Dataquest™ A.R.T. for Windows, DSI) and be appropriately processed. The data are stored in each case in a file created for this purpose and bearing the experiment number.
In the standard procedure, the following are measured for 10-second periods in each case: • systolic blood pressure (SBP) • diastolic blood pressure (DBP) • mean arterial pressure (MAP) • heart rate (HR) • activity (ACT).
The acquisition of measured values is repeated under computer control at 5-minute intervals. The source data obtained as absolute value are corrected in the diagram with the currently measured barometric pressure (Ambient Pressure Reference Monitor; APR-1) and stored as individual data. Further technical details are given in the extensive documentation from the manufacturing company (DSI).
Unless indicated otherwise, the test substances are administered at 9.00 am on the day of the experiment. Following the administration, the parameters described above are measured over 24 hours. […]

[1] = 0.3 mg/kg p.o., 0 hours after substance administration
[2] = 0.3 mg/kg p.o., 1 hours after substance administration
[3] = 0.3 mg/kg p.o., 2 hours after substance administration
[4] = 0.3 mg/kg p.o., 3 hours after substance administration
[5] = 0.3 mg/kg p.o., 4 hours after substance administration
[6] = 0.3 mg/kg p.o., 5 hours after substance administration
[7] = 0.3 mg/kg p.o., 6 hours after substance administration
[8] = 0.3 mg/kg p.o., 7 hours after substance administration
[9] = 0.3 mg/kg p.o., 8 hours after substance administration
[10] = 0.3 mg/kg p.o., 9 hours after substance administration
[11] = 0.3 mg/kg p.o., 10 hours after substance administration
[12] = 0.3 mg/kg p.o., 11 hours after substance administration
[13] = 0.3 mg/kg p.o., 12 hours after substance administration
[14] = 0.3 mg/kg p.o., 13 hours after substance administration
[15] = 0.3 mg/kg p.o., 14 hours after substance administration
[16] = 0.3 mg/kg p.o., 15 hours after substance administration
[17] = 0.3 mg/kg p.o., 16 hours after substance administration
[18] = 0.3 mg/kg p.o., 17 hours after substance administration
[19] = 0.3 mg/kg p.o., 18 hours after substance administration
[20] = 0.3 mg/kg p.o., 19 hours after substance administration
[21] = 0.3 mg/kg p.o., 20 hours after substance administration
[22] = 0.3 mg/kg p.o., 21 hours after substance administration
[23] = 0.3 mg/kg p.o., 22 hours after substance administration
[24] = 0.3 mg/kg p.o., 23 hours after substance administration
[25] = 0.3 mg/kg p.o., 24 hours after substance administration

SMILES: COC(=O)Nc1c(N)nc(-c2nn(Cc3ccccc3F)c3ncc(F)cc23)nc1N [Example 1, Methyl {4,6-diamino-2-[5-fluoro-1-(2-fluorobenzyl)-1H-pyrazolo[3,4-b]pyridin-3-yl]pyrimidin-5-yl}carbamate]
- mean blood pressure [1]: 151.0 mm Hg
- mean blood pressure [2]: 148.4 mm Hg
- mean blood pressure [3]: 136.4 mm Hg
- mean blood pressure [4]: 130.6 mm Hg
- mean blood pressure [5]: 129.1 mm Hg
- mean blood pressure [6]: 132.8 mm Hg
- mean blood pressure [7]: 125.6 mm Hg
- mean blood pressure [8]: 131.9 mm Hg
- mean blood pressure [9]: 131.8 mm Hg
- mean blood pressure [10]: 138.5 mm Hg
- mean blood pressure [11]: 138.3 mm Hg
- mean blood pressure [12]: 138.9 mm Hg
- mean blood pressure [13]: 137.7 mm Hg
- mean blood pressure [14]: 142.9 mm Hg
- mean blood pressure [15]: 144.5 mm Hg
- mean blood pressure [16]: 143.8 mm Hg
- mean blood pressure [17]: 146.3 mm Hg
- mean blood pressure [18]: 141.8 mm Hg
- mean blood pressure [19]: 138.4 mm Hg
- mean blood pressure [20]: 149.2 mm Hg
- mean blood pressure [21]: 145.1 mm Hg
- mean blood pressure [22]: 142.1 mm Hg
- mean blood pressure [23]: 141.8 mm Hg
- mean blood pressure [24]: 143.6 mm Hg
- mean blood pressure [25]: 135.1 mm Hg
- mean blood pressure (3.0 mg/kg p.o., 0 hours after substance administration): 149.0 mm Hg
- mean blood pressure (3.0 mg/kg p.o., 1 hours after substance administration): 129.3 mm Hg
- mean blood pressure (3.0 mg/kg p.o., 2 hours after substance administration): 111.1 mm Hg
- mean blood pressure (3.0 mg/kg p.o., 3 hours after substance administration): 106.0 mm Hg
- mean blood pressure (3.0 mg/kg p.o., 4 hours after substance administration): 107.8 mm Hg
- mean blood pressure (3.0 mg/kg p.o., 5 hours after substance administration): 109.3 mm Hg
- mean blood pressure (3.0 mg/kg p.o., 6 hours after substance administration): 106.8 mm Hg
- mean blood pressure (3.0 mg/kg p.o., 7 hours after substance administration): 110.9 mm Hg
- mean blood pressure (3.0 mg/kg p.o., 8 hours after substance administration): 109.8 mm Hg
- mean blood pressure (3.0 mg/kg p.o., 9 hours after substance administration): 114.3 mm Hg
- mean blood pressure (3.0 mg/kg p.o., 10 hours after substance administration): 114.5 mm Hg
- mean blood pressure (3.0 mg/kg p.o., 11 hours after substance administration): 115.6 mm Hg
- mean blood pressure (3.0 mg/kg p.o., 12 hours after substance administration): 118.8 mm Hg
- mean blood pressure (3.0 mg/kg p.o., 13 hours after substance administration): 120.4 mm Hg
- mean blood pressure (3.0 mg/kg p.o., 14 hours after substance administration): 122.8 mm Hg
- mean blood pressure (3.0 mg/kg p.o., 15 hours after substance administration): 125.8 mm Hg
- mean blood pressure (3.0 mg/kg p.o., 16 hours after substance administration): 131.5 mm Hg
- mean blood pressure (3.0 mg/kg p.o., 17 hours after substance administration): 124.7 mm Hg
- mean blood pressure (3.0 mg/kg p.o., 18 hours after substance administration): 129.6 mm Hg
- mean blood pressure (3.0 mg/kg p.o., 19 hours after substance administration): 135.6 mm Hg
- mean blood pressure (3.0 mg/kg p.o., 20 hours after substance administration): 135.2 mm Hg
- mean blood pressure (3.0 mg/kg p.o., 21 hours after substance administration): 129.3 mm Hg
- mean blood pressure (3.0 mg/kg p.o., 22 hours after substance administration): 128.3 mm Hg
- mean blood pressure (3.0 mg/kg p.o., 23 hours after substance administration): 130.2 mm Hg
- mean blood pressure (3.0 mg/kg p.o., 24 hours after substance administration): 130.8 mm Hg

SMILES: COC(=O)N(C)c1c(N)nc(-c2nn(Cc3ccccc3F)c3ncc(F)cc23)nc1N [Example 2]
- mean blood pressure [1]: 161.3 mm Hg
- mean blood pressure [2]: 145.7 mm Hg
- mean blood pressure [3]: 130.5 mm Hg
- mean blood pressure [4]: 121.5 mm Hg
- mean blood pressure [5]: 123.1 mm Hg
- mean blood pressure [6]: 121.6 mm Hg
- mean blood pressure [7]: 123.8 mm Hg
- mean blood pressure [8]: 124.4 mm Hg
- mean blood pressure [9]: 128.7 mm Hg
- mean blood pressure [10]: 133.7 mm Hg
- mean blood pressure [11]: 139.2 mm Hg
- mean blood pressure [12]: 137.9 mm Hg
- mean blood pressure [13]: 143.0 mm Hg
- mean blood pressure [14]: 146.0 mm Hg
- mean blood pressure [15]: 149.2 mm Hg
- mean blood pressure [16]: 152.3 mm Hg
- mean blood pressure [17]: 155.5 mm Hg
- mean blood pressure [18]: 156.3 mm Hg
- mean blood pressure [19]: 157.3 mm Hg
- mean blood pressure [20]: 156.9 mm Hg
- mean blood pressure [21]: 156.3 mm Hg
- mean blood pressure [22]: 149.3 mm Hg
- mean blood pressure [23]: 147.1 mm Hg
- mean blood pressure [24]: 153.1 mm Hg
- mean blood pressure [25]: 152.3 mm Hg
